Literature values in patent US20050180917A1, “Delivery of neutron capture elements for neutron capture therapy” (priority 2001, published 2005).

Columns and labels:
[1] = in vivo
[2] = review of prior art

Row | Absolute tumour concentration [1] | Molecule | toxicity [2]
1 | 16.5 µg/g | N[C@@H](Cc1ccc(B(O)O)cc1)C(=O)O [BPA, 4-dihydroxyborylphenylalanine] | low toxicity
2 | 6.9 µg/g | sodium mercaptoundecahydrododecaborate [BSH] | low toxicity
